Legend:
[1] = Cyto-toxicity (MTT assay); format: cell-based
[2] = Single dose oral pharmacokinetic study; format: in vivo; conditions: mouse, Mice oral PK @30 mg/kg, plasma, vehicle 10% Solutol+20% PEG; for AUC(0-t): read-out: AUC0-t; for Cmax: read-out: Cmax
Summary of the method: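 Rats or mice dosed orally at 30 mg/kg in 10% Solutol+20% PEG. Acetonitrile precipitation, then LC-MS/MS quantification for PK parameters.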

SMILES	viability at 4 days, 0.01 µM [1]	viability at 4 days, 0.1 µM [1]	viability at 4 days, 1 µM [1]	AUC(0-t) [2]	Cmax [2]	viability at 4 days, 0.001 µM [1]	viability at 4 days, 0.003 µM [1]
Cc1cccc(C(=O)NC(C)(C)C(=O)N[C@@]23CC[C@]4(C)[C@H](CC[C@@H]5[C@@]6(C)CC[C@H](OC(=O)[C@H]7C[C@@H](C(=O)O)C7(C)C)C(C)(C)[C@@H]6CC[C@]54C)C2=C(C(C)C)C(=O)C3)n1 [Example 60, (1R,3S)-3-((((3aR,5aR,5bR,7aR,9S,11aR,11bR,13aS)-1-isopropyl-5a,5b,8,8,11a-pentamethyl-3a-(2-methyl-2-(6-methylpicolinamido)propanamido)-2-oxo-3,3a,4,5,5a,5b,6,7,7a,8,9,10,11,11a,11b,12,13,13a-octadecahydro-2H-cyclopenta[a]chrysen-9-yl)oxy)carbonyl)-2,2-dimethylcyclobutane-1-carboxylic acid]	77%	27%	2%	217 µg·h/mL	20200 ng/mL	–	–
CC(C)C1=C2[C@H]3CC[C@@H]4[C@@]5(C)CC[C@H](OC(=O)[C@H]6C[C@@H](C(=O)O)C6(C)C)C(C)(C)[C@@H]5CC[C@@]4(C)[C@]3(C)CC[C@@]2(NC(=O)C(C)(C)NC(=O)CN(C)C)CC1=O [Example 59, (1R,3S)-3-((((3aR,5aR,5bR,7aR,9S,11aR,11bR,13aS)-3a-(2-(2-(dimethylamino)acetamido)-2-methylpropanamido)-1-isopropyl-5a,5b,8,8,11a-pentamethyl-2-oxo-3,3a,4,5,5a,5b,6,7,7a,8,9,10,11,11a,11b,12,13,13a-octadecahydro-2H-cyclopenta[a]chrysen-9-yl)oxy)carbonyl)-2,2-dimethylcyclobutane-1-carboxylic acid]	94%	15%	8%	186 µg·h/mL	13900 ng/mL	–	–
CC(C)C1=C2[C@H]3CC[C@@H]4[C@@]5(C)CC[C@H](OC(=O)[C@H]6C[C@@H](C(=O)O)C6(C)C)C(C)(C)[C@@H]5CC[C@@]4(C)[C@]3(C)CC[C@@]2(NC(=O)C(C)(C)NC(=O)c2ccc3ccccc3n2)CC1=O [Example 28, (1R,3S)-3-((((3aR,5aR,5bR,7aR,9S,11aR,11bR,13aS)-1-isopropyl-5a,5b,8,8,11a-pentamethyl-3a-(2-methyl-2-(quinoline-2-carboxamido)propanamido)-2-oxo-3,3a,4,5,5a,5b,6,7,7a,8,9,10,11,11a,11b,12,13,13a-octadecahydro-2H-cyclopenta[a]chrysen-9-yl)oxy)carbonyl)-2,2-dimethylcyclobutane-1-carboxylic acid]	21%	10%	6%	345 µg·h/mL	16200 ng/mL	–	–
CC(C)C1=C2[C@H]3CC[C@@H]4[C@@]5(C)CC[C@H](OC(=O)[C@H]6C[C@@H](C(=O)O)C6(C)C)C(C)(C)[C@@H]5CC[C@@]4(C)[C@]3(C)CC[C@@]2(NC(=O)C(C)(C)NC(=O)c2ccc3[nH]cnc3c2)CC1=O [Example 12, (1R,3S)-3-((((3aR,5aR,5bR,7aR,9S,11aR,11bR,13aS)-3a-(2-(1H-benzo[d]imidazole-5-carboxamido)-2-methylpropanamido)-1-isopropyl-5a,5b,8,8,11a-pentamethyl-2-oxo-3,3a,4,5,5a,5b,6,7,7a,8,9,10,11,11a,11b,12,13,13a-octadecahydro-2H-cyclopenta[a]chrysen-9-yl)oxy)carbonyl)-2,2-dimethylcyclobutane-1-carboxylic acid]	42%	7%	3%	61.3 µg·h/mL	8540 ng/mL	–	–
CC(C)C1=C2[C@H]3CC[C@@H]4[C@@]5(C)CC[C@H](OC(=O)[C@H]6C[C@@H](C(=O)O)C6(C)C)C(C)(C)[C@@H]5CC[C@@]4(C)[C@]3(C)CC[C@@]2(NC(=O)C(C)(C)NC(=O)c2ccc(N)nc2)CC1=O [Example 6, (1R,3S)-3-((((3aR,5aR,5bR,7aR,9S,11aR,11bR,13aS)-3a-(2-(6-aminonicotinamido)-2-methylpropanamido)-1-isopropyl-5a,5b,8,8,11a-pentamethyl-2-oxo-3,3a,4,5,5a,5b,6,7,7a,8,9,10,11,11a,11b,12,13,13a-octadecahydro-2H-cyclopenta[a]chrysen-9-yl)oxy)carbonyl)-2,2-dimethylcyclobutane-1-carboxylic acid]	60%	19%	4%	100 µg·h/mL	11100 ng/mL	–	–
CC(C)C1=C2[C@H]3CC[C@@H]4[C@@]5(C)CC[C@H](OC(=O)[C@H]6C[C@@H](C(=O)O)C6(C)C)C(C)(C)[C@@H]5CC[C@@]4(C)[C@]3(C)CC[C@@]2(NC(=O)C(C)(C)NC(=O)C2(c3ccc(Cl)cc3)CC2)CC1=O [Example 2, (1R,3S)-3-((((3aR,5aR,5bR,7aR,9S,11aR,11bR,13aS)-3a-(2-(1-(4-chlorophenyl)cyclopropane-1-carboxamido)-2-methylpropanamido)-1-isopropyl-5a,5b,8,8, 11a-pentamethyl-2-oxo-3,3a,4,5,5a,5b,6,7,7a,8,9,10,11,11a,11b,12,13,13a-octadecahydro-2H-cyclopenta[a]chrysen-9-yl)oxy)carbonyl)-2,2-dimethylcyclobutane-1-carboxylic acid]	42%	9%	8%	166 µg·h/mL	13200 ng/mL	–	–
Cc1ccc(-c2nc3cc(C(=O)NC(C)(C)C(=O)N[C@@]45CC[C@]6(C)[C@H](CC[C@@H]7[C@@]8(C)CC[C@H](OC(=O)[C@H]9C[C@@H](C(=O)O)C9(C)C)C(C)(C)[C@@H]8CC[C@]76C)C4=C(C(C)C)C(=O)C5)ccc3[nH]2)cn1 [Example 13, (1R,3S)-3-((((3aR,5aR,5bR,7aR,9S,11aR,11bR,13aS)-1-isopropyl-5a,5b,8,8,11a-pentamethyl-3a-(2-methyl-2-(2-(6-methylpyridin-3-yl)-1H-benzo[d]imidazole-5-carboxamido)propanamido)-2-oxo-3,3a,4,5,5a,5b,6,7,7a,8,9,10,11,11a,11b,12, 13,13a-octadecahydro-2H-cyclopenta[a]chrysen-9-yl)oxy)carbonyl)-2,2-dimethylcyclobutane-1-carboxylic acid]	45%	10%	4%	18.2 µg·h/mL	2720 ng/mL	–	–
Cc1noc(C)c1C(=O)NC(C)(C)C(=O)N[C@@]12CC[C@]3(C)[C@H](CC[C@@H]4[C@@]5(C)CC[C@H](OC(=O)[C@H]6C[C@@H](C(=O)O)C6(C)C)C(C)(C)[C@@H]5CC[C@]43C)C1=C(C(C)C)C(=O)C2 [Example 19, (1R,3S)-3-((((3aR,5aR,5bR,7aR,9S,11aR,11bR,13aS)-3a-(2-(3,5-dimethylisoxazole-4-carboxamido)-2-methylpropanamido)-1-isopropyl-5a,5b,8,8,11a-pentamethyl-2-oxo-3,3a,4,5,5a,5b,6,7,7a,8,9,10,11,11a,11b,12,13,13a-octadecahydro-2H-cyclopenta[a]chrysen-9-yl)oxy)carbonyl)-2,2-dimethylcyclobutane-1-carboxylic acid]	40%	–	–	93 µg·h/mL	13900 ng/mL	79%	65%
